The subject of one assay is DLD-1 cell line. In words: Colony formation assay (single agent activity). In kind it is cell-based. To be noted: Homo sapiens, 168 h, 7 days of drug treatment, crystal violet. How it is done: Example-129: Colony Formation Assay Protocol (Single Agent Activity)
DLD-1/MIA PaCa-2 cells were seeded at a density of 300/500 cells per well respectively in 48 well tissue culture plate and cells were allowed to settle overnight (16 to 20 h). On the following day, cells were treated with different concentrations of test or reference compound and the assay plates were incubated under standard cell culture conditions (37° C. with 5% CO2). After 7 days of drug treatment, media was removed from each well and plates were washed with PBS. Colonies were stained with crystal violet solution for 2-5 min. Plate was then washed carefully under tap water and air dried. For quantitation, 200 μL destaining solution containing 10% Glacial acetic acid was added to each well and crystal violet from the colonies was allowed to solubilize for 20-30 min on plate shaker. After solubilization, absorbance of the extracted stain was recorded in BioTek Synergy Neo II plate reader at 590 nm. Absorbance values were directly proportional to colony growth.

In a further assay the target is T1, hSOS1 and hKRASG12C (Homo sapiens, UniProt Q07889).
T1 sequence (Q07889 564-1049): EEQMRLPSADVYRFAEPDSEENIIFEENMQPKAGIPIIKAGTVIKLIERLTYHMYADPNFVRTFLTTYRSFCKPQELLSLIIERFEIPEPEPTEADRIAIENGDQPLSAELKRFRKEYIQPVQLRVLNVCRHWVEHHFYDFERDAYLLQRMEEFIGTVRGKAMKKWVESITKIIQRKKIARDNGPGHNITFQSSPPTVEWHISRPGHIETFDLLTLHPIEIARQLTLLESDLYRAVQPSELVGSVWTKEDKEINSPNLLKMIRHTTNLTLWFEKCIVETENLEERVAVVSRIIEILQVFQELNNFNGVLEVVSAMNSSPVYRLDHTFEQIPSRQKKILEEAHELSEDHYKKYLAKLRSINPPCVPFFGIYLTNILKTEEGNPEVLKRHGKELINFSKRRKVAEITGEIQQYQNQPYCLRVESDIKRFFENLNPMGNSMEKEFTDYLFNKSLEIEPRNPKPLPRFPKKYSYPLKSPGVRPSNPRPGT
In words: biochemical.

Assay [1] has as its target T2, hSOS1 mediated nucleotide exchange on hKRASG12C (Homo sapiens, UniProt Q07889).
T2 sequence (Q07889 564-1049): T1 sequence (Q07889 564-1049)
Put plainly: biochemical.
Experimental: Example-127: Guanine Nucleotide Exchange Assay (GNEA)
GNEA assay was conducted to evaluate the effects of compounds on the nucleotide exchange on hKRASG12C mediated by hSOS1. Inhibitory effect of compounds on HIS-hSOS1, 564-1049aa mediated GTP loading onto GST-hKRASG12C, 1-169aa both expressed and purified in-house was assessed using HTRF detection technology in biochemical assay. Compounds were pre-incubated with hSOS1 working solution containing 10-50 nM hSOS1 and 200 nM EDA-GTP-DY-647P1 (Custom manufactured, Jena Biosciences) per well of a 384 well plate (Perkin Elmer, Cat #6007290) for 10 min at 20° C. in the assay buffer containing 10 mM HEPES, pH 7.4, 150 mM NaCl, 5 mM MgCl2, 1 mM DTT, 0.05% BSA fraction V and 0.0025% Igepal. Reaction was initiated by adding working solution of hKRASG12C containing 25-125 nM hKRASG12C and MAb Anti-GST-Tb (#61GSTTLA, Cisbio BioAssays) in assay buffer. Total assay volume was 15 μL. Reaction was continued for 30-60 min at 20° C. HTRF signal was recorded in PHERAStar microplate reader. Ratio of signal obtained at 665 nm and 620 nm was used to compute the percent inhibition of compound as follows.
Where, Positive control=hSOS1+EDA-GTP-DY-647P1+hKRASG12C+MAb Anti-GST-Tb Negative control=EDA-GTP-DY-647P1+hKRASG12C+MAb Anti-GST-Tb

The next assay concerns pERK in DLD1 cells. Put plainly: ERK phosphorylation assay after EGF stimulation. Type of assay: cell-based. To be noted: Homo sapiens, DLD-1, compound 2 h, 200 ng/ml hEGF 5 minutes, alphascreen pERK, read-out: ERK phosphorylation inhibition IC50. The essentials:
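DLD1 cells pretreated 2 h with compound, then stimulated 5 minutes with 200 ng/ml hEGF. Lysates assayed for ERK1/2 p-T202/Y204 by AlphaScreen SureFire, read after 2 h at 25-28° C.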
For orientation: Bead proximity is the source of the signal in Alpha formats.

Assay [2] concerns MIA PaCa-2 human pancreatic cancer xenograft. In words: Tumor growth inhibition in subchronic xenograft model. In kind it is in vivo. To be noted: MIA PaCa-2 xenograft in nude mice, 50 mg/kg b.i.d. As to the method:
In vivo efficacy of compound 87 was evaluated in MIA PaCa-2 human pancreatic cancer xenograft model in nude mice.
20×10^6 MIA PaCa-2 cells were injected subcutaneously in the presence of PBS and matrigel in 1:1 ratio in nude mice. The tumor-bearing mice were randomized once the tumors reached an average volume of approximately 154-159 mm^3 (Tumor volume range 107-248 mm^3). The mice were divided into the following groups (n=7-8/group): Vehicle control and compound 87 (50 mg/kg; b.i.d.).

The source of these data is US12435066B2, “Substituted tricyclic compounds” (LUPIN LIMITED, priority 2019, dated 2025).

Experimental for hSOS1 and hKRASG12C: Interaction assay was conducted to evaluate the ability of the compounds to disrupt the protein-protein interactions between hSOS1 and hKRASG12C. Inhibitory effect of compounds on GST-hSOS1, 564-1049aa expressed and purified in-house and HIS-hKRASG12C (R06-32DH, SignalChem) interaction was assessed using HTRF detection technology in biochemical assay. Compounds were pre-incubated with 10-50 nM working solution of hSOS1 per well of a 384 well plate (Perkin Elmer, Cat #6007290) for 10 min at 20° C. in the assay buffer containing 5 mM HEPES, pH 7.4, 150 mM NaCl, 10 mM EDTA, 1 mM DTT, 0.05% BSA fraction V and 0.0025% Igepal. Reaction was initiated by adding 100-300 nM working solution of hKRASG12C in assay buffer. Total assay volume was 15 μL. Reaction was continued for 30-60 min at 20° C. Then detection solution containing MAb Anti-GST-d2 (#61GSTDLA, Cisbio BioAssays) and MAb Anti-HIS-Tb (#61HISTLA, Cisbio BioAssays), all prepared in HTRF detection buffer (#61DB10RDF, Cisbio BioAssays) was added and further incubated for 30-60 min at 20° C. HTRF signal was recorded in PHERAStar microplate reader. Ratio of signal obtained at 665 nm and 620 nm was used to compute the percent inhibition of compound utilizing the following formula:
Positive control=hSOS1+hKRASG12C+MAb Anti-GST-d2+Mab Anti-HIS-Tb Negative control=hKRASG12C+MAb Anti-GST-d2+MAb Anti-HIS-Tb

As to `Cc1nc(N[C@H](C)c2cccc(C(F)(F)[C@](C)(O)CO)c2F)c2cc(N3CCOCC3)c3c(c2n1)CCC3` (racemic) [Compound 82a, (R/S)-3,3-difluoro-3-(2-fluoro-3-((R/S)-1-((2-methyl-6-morpholino-8,9-dihydro-7H-cyclopenta[h]quinazolin-4-yl)amino)ethyl)phenyl)-2-methylpropane-1,2-diol], the concentration for half-maximal inhibition (IC50) (as a rule, the concentration needed to halve the response being measured) in the assay with DLD-1 cell line lay in the range of 500 to 6000 nM; at hSOS1 and hKRASG12C it was 1 to 10 nM; in assay [1], 1 to 30 nM; in the assay on pERK in DLD1 cells, 1 to 200 nM.

For the compound `Cc1nc(N[C@H](C)c2cc(N)cc(C(F)(F)F)c2)c2cc(-c3ccc(=O)n(C)c3)c3c(c2n1)CCC3` [Compound 87, (R)-5-(4-((1-(3-amino-5-(trifluoromethyl)phenyl)ethyl)amino)-2-methyl-8,9-dihydro-7H-cyclopenta[h]quinazolin-6-yl)-1-methylpyridin-2(1H)-one], the IC50 with DLD-1 cell line was in the range of 500 to 6000 nM; on hSOS1 and hKRASG12C, 1 to 10 nM; in assay [1], 31 to 70 nM; with pERK in DLD1 cells, 1 to 200 nM. Also, the “% tumor growth inhibition” value in assay [2] was “more than 70%”.

As to `Cc1nc(N[C@H](C)c2cc(N)cc(C(F)(F)F)c2)c2cc(N3CCOCC3)c3c(c2n1)CC(C)(C)O3` [Compound 113, (R)—N-(1-(3-amino-5-(trifluoromethyl)phenyl)ethyl)-2,8,8-trimethyl-6-morpholino-8,9-dihydrofuro[2,3-h]quinazolin-4-amine], the IC50 was in the range of 1 to 10 nM at hSOS1 and hKRASG12C; 1 to 30 nM in assay [1]; 1 to 200 nM in the assay with pERK in DLD1 cells.

In the case of `Cc1nc(N[C@H](C)c2cccc(C(F)(F)C(C)O)c2F)c2cc(N3CC4(COC4)C3)c3c(c2n1)CCC3` (single isomer, unassigned) [Compound 73a], the half-maximal inhibitory concentration (IC50) against hSOS1 and hKRASG12C fell in the range of 1 to 10 nM; in assay [1], 1 to 30 nM; with pERK in DLD1 cells, 1 to 200 nM.

`Cc1nc(N[C@H](C)c2cccc(C(F)(F)C(C)(C)O)c2F)c2cc(N3CCC(O)(CO)CC3)c3c(c2n1)CCC3` [Compound 85, (R)-1-(4-((1-(3-(1,1-difluoro-2-hydroxy-2-methylpropyl)-2-fluorophenyl)ethyl)amino)-2-methyl-8,9-dihydro-7H-cyclopenta[h]quinazolin-6-yl)-4-(hydroxymethyl) piperidin-4-ol]: the IC50 against hSOS1 and hKRASG12C fell in the range of 1 to 10 nM; in assay [1], 1 to 30 nM; in the assay on pERK in DLD1 cells it was 1 to 200 nM.

As to `Cc1nc(N[C@H](C)c2cc(N)cc(C(F)(F)F)c2)c2cc(N3CCOCC3)c3c(c2n1)CCC3` [Compound 2, (R)—N-(1-(3-amino-5-(trifluoromethyl)phenyl)ethyl)-2-methyl-6-morpholino-8,9-dihydro-7H-cyclopenta[h]quinazolin-4-amine], the IC50 against hSOS1 and hKRASG12C was in the range of 1 to 10 nM; in assay [1], 1 to 30 nM; in the assay with pERK in DLD1 cells, 1 to 200 nM.
